This assay concerns the target Tie-2 (Homo sapiens, UniProt Q02763). Briefly: Tie-2 tyrosine kinase activity assay (luciferase/luciferin ATP consumption with pEY substrate, or 33P-ATP incorporation). The settings on record: human enzyme Tie-2. It counts as biochemical. Put shortly: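 Values are IC50 categories (A <50 nM to D ≥10,000 nM), with Ki obtainable by fitting rates to a tight-binding model. Assay formats: 33P-ATP phosphate transfer to adsorbed generic substrate counted by scintillation, or luciferase-detected ATP depletion using pEY.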

Bounds are passed on as bounds.

Sequence of Tie-2 (Q02763 23-1124): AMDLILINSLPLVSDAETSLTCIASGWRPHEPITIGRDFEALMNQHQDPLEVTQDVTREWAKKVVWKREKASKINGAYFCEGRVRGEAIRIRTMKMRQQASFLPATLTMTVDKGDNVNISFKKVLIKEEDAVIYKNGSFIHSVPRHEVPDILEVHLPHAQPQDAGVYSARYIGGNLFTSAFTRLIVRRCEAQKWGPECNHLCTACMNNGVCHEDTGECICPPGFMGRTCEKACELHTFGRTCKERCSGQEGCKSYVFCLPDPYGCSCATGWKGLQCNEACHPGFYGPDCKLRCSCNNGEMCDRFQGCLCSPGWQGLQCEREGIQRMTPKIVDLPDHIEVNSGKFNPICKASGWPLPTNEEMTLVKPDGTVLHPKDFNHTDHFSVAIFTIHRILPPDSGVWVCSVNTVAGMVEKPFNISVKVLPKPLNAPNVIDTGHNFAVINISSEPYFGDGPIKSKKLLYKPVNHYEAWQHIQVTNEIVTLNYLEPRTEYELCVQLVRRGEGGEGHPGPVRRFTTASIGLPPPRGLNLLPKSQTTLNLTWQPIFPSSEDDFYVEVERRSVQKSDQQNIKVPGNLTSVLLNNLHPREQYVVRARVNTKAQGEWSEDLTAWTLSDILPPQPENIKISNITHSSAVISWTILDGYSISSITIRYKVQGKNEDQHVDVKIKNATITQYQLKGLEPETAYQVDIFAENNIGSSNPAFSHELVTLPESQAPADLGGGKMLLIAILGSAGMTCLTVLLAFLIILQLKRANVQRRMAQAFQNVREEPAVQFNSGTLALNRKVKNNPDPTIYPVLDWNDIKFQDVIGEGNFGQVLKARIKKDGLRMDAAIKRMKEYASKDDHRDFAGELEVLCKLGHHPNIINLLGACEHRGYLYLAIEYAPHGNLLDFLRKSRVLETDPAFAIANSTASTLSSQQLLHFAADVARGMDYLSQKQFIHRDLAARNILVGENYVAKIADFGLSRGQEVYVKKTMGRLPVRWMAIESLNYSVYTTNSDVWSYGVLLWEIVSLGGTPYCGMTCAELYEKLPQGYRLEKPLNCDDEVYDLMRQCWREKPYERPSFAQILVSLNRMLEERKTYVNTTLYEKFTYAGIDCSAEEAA

One may read the IC50 as the point on the concentration scale where inhibition reaches its midpoint. Take `Nc1nccc(COc2nccnc2N2CCN(C(=O)Nc3cc(C(F)(F)F)ccc3F)CC2)n1` [Example 225, 4-(3-{[(2-aminopyrimidin-4-yl)methyl]oxy}pyrazin-2-yl)-N-[2-fluoro-5-(trifluoromethyl)phenyl]piperazine-1-carboxamide]: the IC50 was below 50 nM.
In turn, `CCc1cccc(NC(=O)N2CCN(c3nc(C)ccc3OCc3ccnc(N)n3)CC2)c1` [Example 227, 4-(3-{[(2-aminopyrimidin-4-yl)methyl]oxy}-6-methylpyridin-2-yl)-N-(3-ethylphenyl)piperazine-1-carboxamide] registered a half-maximal inhibitory concentration (IC50) below 50 nM.
For `Cc1ccc(OCc2ccnc(N)n2)c(N2CCN(C(=O)Nc3cc(C(F)(F)F)cc(C(F)(F)F)c3)CC2)n1` [Example 228, 4-(3-{[(2-aminopyrimidin-4-yl)methyl]oxy}-6-methylpyridin-2-yl)-N-[3,5-bis(trifluoromethyl)phenyl]piperazine-1-carboxamide], the IC50 was below 50 nM.
Consider `Nc1nccc(COc2nccnc2N2CCN(C(=O)Nc3cccc(C(F)(F)F)c3)CC2)n1` [Example 229, 4-(3-{[(2-aminopyrimidin-4-yl)methyl]oxy}pyrazin-2-yl)-N-[3-(trifluoromethyl)phenyl]piperazine-1-carboxamide], for which the IC50 is below 50 nM.
Under `Nc1nccc(COc2nsnc2N2CCN(C(=O)Nc3ccccc3)CC2)n1` [Example 230, 4-(4-{[(2-aminopyrimidin-4-yl)methyl]oxy}-1,2,5-thiadiazol-3-yl)-N-phenylpiperazine-1-carboxamide] stands at least 10000 nM; under `Nc1nccc(COc2nsnc2N2CCN(C(=O)Nc3cccc(C(F)(F)F)c3)CC2)n1` [Example 231, 4-(4-{[(2-aminopyrimidin-4-yl)methyl]oxy}-1,2,5-thiadiazol-3-yl)-N-[3-(trifluoromethyl)phenyl]piperazine-1-carboxamide], below 50 nM; under `Nc1nccc(COc2nsnc2N2CCN(C(=O)Nc3cc(C(F)(F)F)ccc3F)CC2)n1` [Example 232, 4-(4-{[(2-aminopyrimidin-4-yl)methyl]oxy}-1,2,5-thiadiazol-3-yl)-N-[2-fluoro-5-(trifluoromethyl)phenyl]piperazine-1-carboxamide], 50 to 1000 nM.
`CN1CCN(CC(=O)Nc2cc(COc3cccnc3N3CCN(C(=O)Nc4cc(Cl)cc(C(F)(F)F)c4)CC3)ccn2)CC1` [Example 233, N-[3-chloro-5-(trifluoromethyl)phenyl]-4-(3-{[(2-{[(4-methylpiperazin-1-yl)acetyl]amino}pyridin-4-yl)methyl]oxy}pyridin-2-yl)piperazine-1-carboxamide] registered an IC50 below 50 nM.
For `Nc1nccc(COc2nccnc2N2CCN(C(=O)Nc3cc(Cl)cc(C(F)(F)F)c3)CC2)n1` [Example 234, 4-(3-{[(2-aminopyrimidin-4-yl)methyl]oxy}pyrazin-2-yl)-N-[3-chloro-5-(trifluoromethyl)phenyl]piperazine-1-carboxamide] the value was below 50 nM; for `Nc1nccc(COc2cccnc2N2CCN(C(=O)Nc3cc(Cl)cc(C(F)(F)F)c3)CC2)n1` [Example 235, 4-(3-{[(2-aminopyrimidin-4-yl)methyl]oxy}pyridin-2-yl)-N-[3-chloro-5-(trifluoromethyl)phenyl]piperazine-1-carboxamide], below 50 nM; for `CCc1cc(Br)cc(NC(=O)N2CCN(c3nccnc3OCc3ccnc(N)n3)CC2)c1` [Example 236, 4-(3-{[(2-aminopyrimidin-4-yl)methyl]oxy}pyrazin-2-yl)-N-(3-bromo-5-ethylphenyl)piperazine-1-carboxamide], below 50 nM.
Molecule `CCc1cccc(NC(=O)N2CCN(c3nc(Cl)ccc3OCc3ccnc(N)n3)CC2)c1` [Example 237, 4-(3-{[(2-aminopyrimidin-4-yl)methyl]oxy}-6-chloropyridin-2-yl)-N-(3-ethylphenyl)piperazine-1-carboxamide] showed an IC50 below 50 nM.
For `CCc1cc(Br)cc(NC(=O)N2CCN(c3nsnc3OCc3ccnc(N)n3)CC2)c1` [Example 238, 4-(4-{[(2-aminopyrimidin-4-yl)methyl]oxy}-1,2,5-thiadiazol-3-yl)-N-(3-bromo-5-ethylphenyl)piperazine-1-carboxamide] the value was below 50 nM.
As for `Nc1nccc(COc2nsnc2N2CCN(C(=O)Nc3cc(F)cc(C(F)(F)F)c3)CC2)n1` [Example 239, 4-(4-{[(2-aminopyrimidin-4-yl)methyl]oxy}-1,2,5-thiadiazol-3-yl)-N-[3-fluoro-5-(trifluoromethyl)phenyl]piperazine-1-carboxamide], the IC50 was below 50 nM.
Consider `Nc1nccc(COc2nsnc2N2CCN(C(=O)Nc3cc(Cl)cc(C(F)(F)F)c3)CC2)n1` [Example 240, 4-(4-{[(2-aminopyrimidin-4-yl)methyl]oxy}-1,2,5-thiadiazol-3-yl)-N-[3-chloro-5-(trifluoromethyl)phenyl]piperazine-1-carboxamide], for which the IC50 is below 50 nM.
Under `CCc1cc(NC(=O)N2CCN(c3nccnc3OCc3ccnc(N)n3)CC2)ccc1F` [Example 241, 4-(3-{[(2-aminopyrimidin-4-yl)methyl]oxy}pyrazin-2-yl)-N-(3-ethyl-4-fluorophenyl)piperazine-1-carboxamide] stands below 50 nM; under `CCc1cc(CC)cc(NC(=O)N2CCN(c3nsnc3OCc3ccnc(N)n3)CC2)c1` [Example 242, 4-(4-{[(2-aminopyrimidin-4-yl)methyl]oxy}-1,2,5-thiadiazol-3-yl)-N-(3,5-diethylphenyl)piperazine-1-carboxamide], below 50 nM.
Under `CN1CCN(CC(=O)Nc2cc(COc3cccnc3N3CCN(C(=O)Nc4cc(C(F)(F)F)cc(Cl)c4F)CC3)ccn2)CC1` [Example 243, N-[3-chloro-2-fluoro-5-(trifluoromethyl)phenyl]-4-(3-{[(2-{[(4-methylpiperazin-1-yl)acetyl]amino}pyridin-4-yl)methyl]oxy}pyridin-2-yl)piperazine-1-carboxamide] stands below 50 nM; under `Nc1nccc(COc2ccc(Cl)nc2N2CCN(C(=O)Nc3cc(C(F)(F)F)cc(C(F)(F)F)c3)CC2)n1` [Example 244, 4-(3-{[(2-aminopyrimidin-4-yl)methyl]oxy}-6-chloropyridin-2-yl)-N-[3,5-bis(trifluoromethyl)phenyl]piperazine-1-carboxamide], below 50 nM.
Molecule `CCc1cccc(NC(=O)N2CCN(c3ncccc3OC(C)c3ccnc(N)n3)CC2)c1` (stereo not shown) [Example 245, 4-(3-{[1-(2-aminopyrimidin-4-yl)ethyl]oxy}pyridin-2-yl)-N-(3-ethylphenyl)piperazine-1-carboxamide] came in with a 50% inhibitory concentration (IC50) below 50 nM.
`CCc1ccc(F)c(NC(=O)N2CCN(c3nc(Cl)ccc3OCc3ccnc(N)n3)CC2)c1` [Example 246, 4-(3-{[(2-aminopyrimidin-4-yl)methyl]oxy}-6-chloropyridin-2-yl)-N-(5-ethyl-2-fluorophenyl)piperazine-1-carboxamide] had an IC50 below 50 nM.
Consider `CCc1cc(F)cc(NC(=O)N2CCN(c3ncccc3OCc3ccnc(N)n3)CC2)c1` [Example 247, 4-(3-{[(2-aminopyrimidin-4-yl)methyl]oxy}pyridin-2-yl)-N-(3-ethyl-5-fluorophenyl)piperazine-1-carboxamide], for which the IC50 was below 50 nM.

(Values after patent US8013156B2 (Exelixis, Inc., priority 2003, dated 2011).)
